Source: US6977251B2, “5-androstene-3β, 17α diol as an inhibitor of tumor growth” (priority 1997, dated 2005)
Read-outs that look alike come from different tables or passages of the source.

Legend:
[1] = system: ZR-75-1 cells; test: cells; settings: for cell proliferation (3H-thymidine): six day period
Description: The ZR-75-1 cell line (passage 89) was obtained from the American Type Culture Collection (Rockville, Md.). The cells were cultured in RPMI-1640 medium containing 10% heat-inactivated fetal calf serum, 200 μM L-glutamine, […] HEPES, 1.5 U/ml penicillin, and 1.5 μg/ml streptomycin in 5% CO2 at 37° C. The cells were passaged twice weekly.
(§1) Cells were first seeded at initial density of 1×10^5 cells per ml in quadruplicates in 24 multi-well flat bottom plates (Costar). Cells were then allowed to adhere and grow in phenol red-free […] media supplemented with 10% heat-inactivated fetal calf serum (FCS), 200 μM L-glutamine, 10 mM HEPES, 2.5 U/ml penicillin and 2.5 μg/ml streptomycin in 5% CO2 at 37° C. After 48 hours, four wells were sacrificed and counted to determine plating efficiency. In the remaining wells, medium was removed by aspiration and cells in each well were exposed to the media containing the specified steroid. The controls containing only medium or medium with vehicle were also prepared. In all samples, medium was changed every 48 hours. At the pre-established time-point. Cells were removed by trypsinization and washed. Cell number and viability were determined by trypan blue exclusion using a hemocytometer. Parallel cultures were also run to determine cell proliferation.
(§2) For cell proliferation assays, cell suspensions were prepared by trypsinization of cells from cultures prepared in accord with methods described above. Cell viability was determined by trypan blue exclusion. The cells were then seeded in flat-bottom 96-well microtiter plates at a density of 2×10^3 cells/well and were allowed to rest for 48 hours in order to adhere. Non-adherent dead cells were removed by aspiration. Cells were then grown in media without phenol red. Some of the media contained supplements as indicated above. […] The cells were then grown for six days. Media was changed on the samples every 48 hours. On day 6, cells were pulsed with 1 μCi[…]-thymidine for the last 6 hours of incubation before harvesting onto glass filter using a HPD cell harvester (Cambridge Technology, Watertown, Mass.) and counted on a KLB scintillation counter.
ZR-75-1 cells (2×10^3) were treated as described above over a six day period with differing concentrations of αAED or with vehicle-only cultures. The medium was changed every 48 hours. Cells were pulsed with ^3H-thymidine for the last six hours of incubation.

[2] = system: ZR-75-1 cells; settings: trypan blue exclusion
Description: as §1

[3] = system: P388D1 cells; settings: RU486 at 0.5 μM and 1.0 μM
Description: as §2

[4] = system: RAW 264.7
Description: as §2
Effects of αAED at doses of 50 ηM and 100 ηM doses on murine macrophage myeloma cells (RAW 264.7, obtained from the American Type Culture Collection) was studied.

SMILES | cell proliferation in combination with RU486 ([1]; 0.1 μl concentrations of αAED with 0.5 μM RU486) | cell proliferation (3H-thymidine) ([1]; 6.25 ηM) | cell proliferation (3H-thymidine) ([1]; 12.5 ηM) | cell proliferation (3H-thymidine) ([1]; 50 ηM) | IC50 ([1]; Homo sapiens, ZR-75-1, read-out: half-maximal dose of anti-proliferative effect) | maximal dose of anti-proliferative effect ([1]; ZR-75-1 cells, dose and time-dependent) | cell proliferation in the presence of estradiol ([1]; higher doses of αAED, 1 ηM estradiol, 6 day period) | concentration at which growth of ZR-75-1 cells was significantly inhibited ([1]; tritiated thymidine incorporation, in vitro) | cell proliferation in the presence of βAED ([1]; varied αAED, βAED constant at 2.5 ηM, six days) | cell proliferation in combination with RU486 ([1]; αAED with RU486 at 1 μM) | cytotoxicity (cell count and viability) [2] | effect on growth of P388D1 cells in combination with RU486 [3] | proliferation of RAW 264.7 cells ([4]; 50 ηM) | proliferation of RAW 264.7 cells ([4]; 100 ηM) | antiproliferative effect on growth of ZR-75-1 cells ([1]; alone at 100 ηM)
C[C@]12CC[C@H]3[C@@H](CC=C4C[C@@H](O)CC[C@@]43C)[C@@H]1CC[C@H]2O [αAED, 5-androstene 3β,17α diol] | synergistic action to decrease proliferation of cells | increasing proliferation | decreasing cell proliferation | marked decrease | 50 nM | 100 ηM | suppressed proliferation even in the presence of estradiol | ≥ 12.5 ηM | decreased proliferation at all concentrations | synergism was shown to be even greater | not toxic to the cells | increased effectiveness over use of one agent | significant inhibition of proliferation | significant inhibition of proliferation | –
C[C@]12CC[C@H]3[C@@H](CC=C4C[C@@H](O)CC[C@@]43C)[C@@H]1CC[C@@H]2O [βAED, 5-androstene 3β,17β diol, reference compound] | – | – | – | – | – | – | – | – | – | – | – | – | – | – | did not have any antiproliferative effect
